Measured values taken from patent publication US10925855B2, “Compositions comprising water dispersible nanoparticles of a retinoid compound” (GALDERMA RESEARCH & DEVELOPMENT, priority 2015, dated 2021).

Legend:
[1] = Stabilizer screening (colloid stability after precipitation); type: physicochemical; details: Compound A 1.0 mg; for Observation: Stable for: at RT
Protocol: If the colloid solution was stable over 2 hours (no aggregation, sedimentation, crystal forming), and no aggregation occurred, the sample was lyophilized. • If precipitation occurred, however the colloid solution was not stable over the whole solid formulation procedure, other stabilizers were tested. Results

[2] = Chemical stability by HPLC; type: physicochemical
Protocol: Chemical stability of nanosized compound A formulae were investigated by HPLC measurements. They were performed in an Agilent 1100 HPLC waters coupled with ZQ2000 MSD, C18, Phenomenex Gemini-NX 3 micron, 100×3 mm column.

Observation ([1]; 2 mg PVP40, 1 mL EtOH, 7 mL 0.05 mg/mL BAC solution): Aggregated immediately
Observation ([1]; 2 mg PVP40, 1 mL EtOH, 7 mL 0.05 mg/mL DSS solution): Aggregated immediately
Observation ([1]; 2 mg PVP40, 1 mL EtOH, 7 mL 0.05 mg/mL Mannitol solution): Aggregated immediately
Observation ([1]; 2 mg PVP40, 1 mL EtOH, 7 mL 0.05 mg/mL NaOAc solution): Aggregated immediately
Observation ([1]; 2 mg PVP40, 1 mL EtOH, 7 mL 0.05 mg/mL SDS solution): Aggregated immediately
Observation ([1]; 2 mg PVP40, 1 mL EtOH, 7 mL 0.05 mg/mL citric acid solution): Aggregated immediately
Observation ([1]; 2 mg PVP40, 1 mL EtOH, 7 mL 0.5 mg/mL BAC solution): Aggregated immediately
Observation: Aggregated within ([1]; 2 mg PVP40, 1 mL EtOH, 7 mL 0.5 mg/mL DSS solution): Aggregated within 1 hour
Observation ([1]; 2 mg PVP40, 1 mL EtOH, 7 mL 0.5 mg/mL Mannitol solution): Aggregated immediately
Observation: Aggregated within ([1]; 2 mg PVP40, 1 mL EtOH, 7 mL 0.5 mg/mL NaOAc solution): Aggregated within 1 hour
Observation: Aggregated within ([1]; 2 mg PVP40, 1 mL EtOH, 7 mL 0.5 mg/mL SDS solution): Aggregated within 1 hour
Observation ([1]; 2 mg PVP40, 1 mL EtOH, 7 mL 0.5 mg/mL citric acid solution): Aggregated immediately
Observation ([1]; 2 mg PVP40, 1 mL IPA, 4 mL water): Aggregated
Observation ([1]; 2 mg PVP40, 1 mL MeOH, 4 mL water): Precipitation did not occur
Observation: Colloid, Stable for ([1]; 2 mg PVPK90, 1 mL EtOH, 4 mL water): Colloid, Stable for 5 min
Observation ([1]; 2 mg PVPK90, 1 mL IPA, 4 mL water): Aggregated
Observation ([1]; 2 mg PVPK90, 1 mL MeOH, 4 mL water): Precipitation did not occur
Observation ([1]; 2 mg Pluronic PE6800, 1 mL ACE, 4 mL water): Aggregated immediately
Observation ([1]; 2 mg Pluronic PE6800, 1 mL EtOH, 4 mL water): Aggregated
Observation ([1]; 2 mg Pluronic PE6800, 1 mL IPA, 4 mL water): Aggregated
Observation ([1]; 2 mg Pluronic PE6800, 1 mL MeOH, 4 mL water): Cloudy immediately
Observation ([1]; 2 mg Pluronic PE6800, 1 mL THF, 5 mL water): Aggregated
Observation ([1]; 2 mg Pluronic PE10500, 1 mL ACE, 4 mL water): Aggregated immediately
Observation ([1]; 2 mg Pluronic PE10500, 1 mL EtOH, 4 mL water): Aggregated
Observation ([1]; 2 mg Pluronic PE10500, 1 mL IPA, 4 mL water): Aggregated
Observation ([1]; 2 mg Pluronic PE10500, 1 mL MeOH, 4 mL water): Cloudy immediately
Observation ([1]; 2 mg Pluronic PE10500, 1 mL THF, 4 mL water): Aggregated
Observation: Aggregated within ([1]; 2 mg Soluplus, 1 mL ACE, 4 mL water): Aggregated within 5 min
Observation: Slightly opalescent colloid, stable for ([1]; 2 mg Soluplus, 1 mL EtOH, 4 mL water): stable for 5 min
Observation ([1]; 2 mg Soluplus, 1 mL MeOH, 4 mL water): Precipitation did not occur
Observation ([1]; 2 mg Soluplus, 1 mL THF, 4 mL water): Aggregated
Observation ([1]; 2 mg Solutol, 1 mL ACE, 4 mL water): Aggregated immediately
Observation ([1]; 2 mg Solutol, 1 mL EtOH, 4 mL water): Aggregated
Observation ([1]; 2 mg Solutol, 1 mL IPA, 4 mL water): Aggregated
Observation ([1]; 2 mg Solutol, 1 mL MeOH, 4 mL water): Aggregated
Observation ([1]; 2 mg Solutol, 1 mL THF, 4 mL water): Aggregated
Observation: Aggregated within ([1]; 2 mg TPGS, 1 mL ACE, 4 mL water): Aggregated within 5 min
Observation ([1]; 2 mg TPGS, 1 mL EtOH, 4 mL water): Aggregated
Observation ([1]; 2 mg TPGS, 1 mL IPA, 4 mL water): Aggregated
Observation: Aggregated after ([1]; 2 mg TPGS, 1 mL MeOH, 4 mL water): Aggregated after 25 min
Observation ([1]; 2 mg TPGS, 1 mL THF, 4 mL water): Aggregated
Observation ([1]; 2 mg Tetronic, 1 mL ACE, 4 mL water): Aggregated immediately
Observation ([1]; 2 mg Tetronic, 1 mL EtOH, 4 mL water): Aggregated
Observation ([1]; 2 mg Tetronic, 1 mL IPA, 4 mL water): Aggregated
Observation ([1]; 2 mg Tetronic, 1 mL MeOH, 4 mL water): Cloudy immediately
Observation ([1]; 2 mg Tetronic, 1 mL THF, 4 mL water): Aggregated
Observation: Aggregated within ([1]; 3 mg Luviskol VA64, 1 mL EtOH, 0.0001M NaOH solution): Aggregated within 1 day
Observation: Stable for ([1]; 3 mg Luviskol VA64, 1 mL EtOH, 0.001M NaOH solution): Stable for 3 days at RT
Observation: Stable for ([1]; 3 mg Luviskol VA64, 1 mL EtOH, 0.01M NaOH solution): Stable for 3 days at RT
Observation: Stable for ([1]; 3 mg Luviskol VA64, 1 mL EtOH, 0.1M NaOH solution): Stable for 3 days at RT
Observation ([1]; 3 mg Luviskol VA64, 1 mL EtOH, 7 mL 0.05 mg/mL NaOAc solution): Aggregated immediately
Observation: Stable for ([1]; 3 mg Luviskol VA64, 1 mL EtOH, 7 mL 0.5 mg/mL NaOAc solution): Stable for 3 days at RT
Observation ([1]; 3 mg PVP10, 1 mL EtOH, 7 mL 0.05 mg/mL NaOAc solution): Aggregated immediately
Observation: Aggregated within ([1]; 3 mg PVP10, 1 mL EtOH, 7 mL 0.5 mg/mL NaOAc solution): Aggregated within 1 hour
Observation ([1]; 3 mg PVP40, 1 mL EtOH, 7 mL 0.05 mg/mL NaOAc solution): Aggregated immediately
Observation: Stable for ([1]; 3 mg PVP40, 1 mL EtOH, 7 mL 0.5 mg/mL NaOAc solution): Stable for 1 day at RT
Observation ([1]; 4 mg Luviskol VA64, 1 mL EtOH, 7 mL 0.05 mg/mL NaOAc solution): Aggregated immediately
Observation: Aggregated within ([1]; 4 mg Luviskol VA64, 1 mL EtOH, 7 mL 0.5 mg/mL NaOAc solution): Aggregated within 1 day
Observation ([1]; 4 mg PVP10, 1 mL EtOH, 7 mL 0.05 mg/mL NaOAc solution): Aggregated immediately
Observation: Aggregated within ([1]; 4 mg PVP10, 1 mL EtOH, 7 mL 0.5 mg/mL NaOAc solution): Aggregated within 1 hour
Observation ([1]; 4 mg PVP40, 1 mL EtOH, 7 mL 0.05 mg/mL NaOAc solution): Aggregated immediately
Observation: Aggregated within ([1]; 4 mg PVP40, 1 mL EtOH, 7 mL 0.5 mg/mL NaOAc solution): Aggregated within 1 day
Observation ([1]; no stabilizer (—), 1 mL ACE, 4 mL water): Aggregated
Observation ([1]; no stabilizer (—), 1 mL EtOH, 4 mL water): Aggregated
Observation ([1]; no stabilizer (—), 1 mL IPA, 4 mL water): Aggregated
Observation ([1]; no stabilizer (—), 1 mL MeOH, 4 mL water): Aggregated
decomposition of the active ingredient in HPLC analysis ([2]; 0.1 M sodium hydroxide used as antisolvent (data not shown)): Significant decomposition
Structure (SMILES): CC(C)(C)c1cc(-c2cc(-c3ccc(C(=O)O)cc3)ccc2OCCO)ccc1N1CCCC1 [Compound A, 3″-tert-butyl-4′-(2-hydroxyethoxy)-4″-pyrrolidin-1-yl[1,1′;3′,1″]-terphenyl-4-carboxylic acid]
decomposition of the active ingredient in HPLC analysis ([2]; 0.001 M sodium hydroxide solution as antisolvent): decomposition of the active could not be observed
decomposition of the active ingredient in HPLC analysis ([2]; 0.01 M sodium hydroxide solution as antisolvent): decomposition of the active could not be observed
